The source of these data is paper PMC7350133 (Heliyon, 2020).

Structures are written as SMILES. Where two headings read alike, the source gives them in different places.

The test system of experiment [1] is yeast alpha glucosidase enzyme. Particulars: ref Gong et al., 2017, Peng et al., 2016, Rouzbehan et al.; cited from earlier work.
A short description of experiment [2]: DPPH free radical scavenging assay. Conditions: mean ± SD (n = 3). In general terms: The DPPH test is a chemical assay of radical scavenging.
Experiment [3] can be described thus: ABTS free radical scavenging assay. Conditions: mean ± SD (n = 3).
The target of a further experiment is alpha glucosidase. Conditions: cited from earlier work.

Consider `C[C@H]1O[C@H](O[C@H]2[C@H](O)[C@@H](O)[C@@H](O[C@H]3[C@H](O)[C@@H](O)C(O)O[C@@H]3CO)O[C@@H]2CO)[C@H](O)[C@@H](O)[C@@H]1N[C@H]1C=C(CO)[C@@H](O)[C@H](O)[C@H]1O` (stereo partly shown) [Acarbose, acarbose], for which, in experiment [1], the type of inhibition entry is “competitive”. As to `O=C1O[C@H]([C@@H](O)CO)C(O)=C1O` [Ascorbic acid], in experiment [2], the “Antioxidant activity (IC50 in μg/mL) DPPH Assay” value came to 5.1 ± 0.1 µg/mL. For the same compound, the “Antioxidant activity (IC50 in μg/mL) ABTS Assay” value in experiment [3] came out at 3.9 ± 0.2 µg/mL. On to `COc1ccc([C@@H]2CC(=O)c3c(O)cc(O)cc3O2)cc1O` [hesperetin], for which the type of inhibition entry in experiment [1] is given as “mixed type”. Turning to `O=c1c(O)c(-c2ccc(O)cc2)oc2cc(O)cc(O)c12` [kaempferol], the type of inhibition entry in experiment [1] is “mixed type”. For `O=c1c2cc(O)c(O)cc2oc2cc(O)cc(O)c12` [norathyriol], the “AGI IC50” value on alpha glucosidase (ref Gu et al., 2019) is 4.22 ± 0.19 µg/mL. For `C/C=C(\C)CC/C=C(\C)C(=O)OCC(C)(C)CC1=C(O)C(=O)c2ccccc2C1=O` [rhinacanthin C], the “AGI IC50” value at alpha glucosidase (ref Shah et al., 2017) was 22.6 ± 0.6 µg/mL.
